Some results are limits rather than exact numbers.

One experiment has as its target Pseudomonas aeruginosa LpxC enzyme (Pseudomonas aeruginosa (strain ATCC 15692 / DSM 22644 / CIP 104116 / JCM 14847 / LMG 12228 / 1C / PRS 101 / PAO1), UniProt P47205). Nature of the experiment: biochemical. Conditions: class symbols A/B/C by IC50; Table 3; read-out: Enzyme inhibitory activity (inhibitory activity on Pseudomonas aeruginosa LpxC enzyme). It counts as biochemical.
As to `CCOC1CN(Cc2ccc(C#Cc3ccc(C(=O)N(C)C(C(=O)NC)C(=O)NO)cc3)cc2C(F)(F)F)C1` (centres unmarked) [Compound 573, 2-[{[4-({4-[(3-ethoxyazetidin-1-yl)methyl]-3-(trifluoromethyl)phenyl}ethynyl)phenyl]carbonyl}(methyl)amino]-N-hydroxy-N′-methylpropanediamide], the IC50 is < 10 nM. Take `CCOC1CN(Cc2ccc(C#Cc3ccc(C(=O)N(C)C(C(=O)NC)C(=O)NO)cc3)cc2Cl)C1` (centres unmarked) [Compound 579, 2-[{[4-({3-chloro-4-[(3-ethoxyazetidin-1-yl)methyl]phenyl}ethynyl)phenyl]carbonyl}(methyl)amino]-N-hydroxy-N′-methylpropanediamide]: the IC50 is < 10 nM.

Staying with this experiment, now noted: inhibitory activity on Pseudomonas aeruginosa LpxC enzyme, class symbols A/B/C; read-out: Enzyme inhibitory activity.
In the case of `CNC(=O)C(C(=O)NO)N(C)C(=O)c1ccc(-c2ccc([C@@H](C)NC(=O)OC(C)(C)C)cc2)cc1` (stereo partly drawn) [Compound 34, tert-butyl[(1R)-1-(4′-{[1-(hydroxyamino)-3-(methylamino)-1,3-dioxopropan-2-yl](methyl)carbamoyl}biphenyl-4-yl)ethyl]carbamate], the IC50 is 10 to 100 nM. Same read-out and setting: then `CCCNC(=O)c1ccc(-c2ccc(C(=O)N(C)C(C(=O)NC)C(=O)NO)cc2)cc1` (centres unmarked) [Compound 257, N-[1-(hydroxyamino)-3-(methylamino)-1,3-dioxopropan-2-yl]-N-methyl-N′-propylbiphenyl-4,4′-dicarboxamide], with 10 to 100 nM.

With `CNC(=O)C(C(=O)NO)N(C)C(=O)c1ccc(-c2ccc(NC)c(C(F)(F)F)c2)cc1` (centres unmarked) [Compound 68, N-hydroxy-N′-methyl-2-(methyl{[4′-(methylamino)-3′-(trifluoromethyl)biphenyl-4-yl]carbonyl}amino)propanediamide], the IC50 was < 10 nM. Take `CNC(=O)C(C(=O)NO)N(C)C(=O)c1cnc(-c2ccc(OC)cc2)c(F)c1` (centres unmarked) [Compound 457, 2-[{[5-fluoro-6-(4-methoxyphenyl)pyridin-3-yl]carbonyl}(methyl)amino]-N-hydroxy-N′-methylpropanediamide]: the IC50 was in the range of 10 to 100 nM. As to `CNC(=O)C(C(=O)NO)N(C)C(=O)c1ccc(-c2ccc3ccn(C)c3c2)cc1` (centres unmarked) [Compound 36, N-hydroxy-N′-methyl-2-{methyl[4-(1-methyl-1H-indol-6-yl)benzoyl]amino}propanediamide], the IC50 was < 10 nM. Turning to `CNC(=O)C(C(=O)NO)N(C)C(=O)c1ccc(-c2ccc(N3CC(O)C3)cc2)cc1` (centres unmarked) [Compound 244, N-hydroxy-2-[{[4′-(3-hydroxyazetidin-1-yl)biphenyl-4-yl]carbonyl}(methyl)amino]-N′-methylpropanediamide], the IC50 is 10 to 100 nM. Same read-out and setting: then `CNC(=O)C(C(=O)NO)N(C)C(=O)c1ccc(-c2ccc(C(C)(C)C)cc2)cc1` (centres unmarked) [Compound 240, 2-{[(4′-tert-butylbiphenyl-4-yl)carbonyl](methyl)amino}-N-hydroxy-N′-methylpropanediamide], with 10 to 100 nM. Still for that read-out and setting: then `CNC(=O)C(C(=O)NO)N(C)C(=O)c1ccc(-c2ccc(OCCCN3CC(OC)C3)cc2)cc1` (centres unmarked) [Compound 276, N-hydroxy-2-[({4′-[3-(3-methoxyazetidin-1-yl)propoxy]biphenyl-4-yl}carbonyl)(methyl)amino]-N′-methylpropanediamide], with < 10 nM. For `CNC(=O)C(C(=O)NO)N(C)C(=O)c1ccc(-c2ccc(NC)cc2F)cc1` (centres unmarked) [Compound 226, 2-[{[2′-fluoro-4′-(methylamino)biphenyl-4-yl]carbonyl}(methyl)amino]-N-hydroxy-N′-methylpropanediamide], the IC50 was < 10 nM. Regarding `Cc1cccc(CNC(=O)C(NC(=O)c2ccc(-c3ccc(OCCO)cc3)cc2)C(=O)NO)n1` (centres unmarked) [Compound 150, N-hydroxy-2-({[4′-(2-hydroxyethoxy)biphenyl-4-yl]carbonyl}amino)-N′-[(6-methylpyridin-2-yl)methyl]propanediamide], the IC50 was < 10 nM. Take `O=C(NC(C(=O)NO)C(=O)NC1CC1)c1ccc(-c2ccc(OCCO)cc2)cc1` (centres unmarked) [Compound 121, N-cyclopropyl-N′-hydroxy-2-({[4′-(2-hydroxyethoxy)biphenyl-4-yl]carbonyl}amino)propanediamide]: the IC50 lay within 10 to 100 nM.

Regarding `CCCNc1ccc(-c2ccc(C(=O)N(C)C(C(=O)NC)C(=O)NO)cc2)cc1F` (centres unmarked) [Compound 231, 2-[{[3′-fluoro-4′-(propylamino)biphenyl-4-yl]carbonyl}(methyl)amino]-N-hydroxy-N′-methylpropanediamide], the IC50 is < 10 nM. Take `CNC(=O)C(C(=O)NO)N(C)C(=O)c1ccc(-c2ccc(OCCCNC3CC3)cc2)cc1` (centres unmarked) [Compound 217, 2-[({4′-[3-(cyclopropylamino)propoxy]biphenyl-4-yl}carbonyl)(methyl)amino]-N-hydroxy-N′-methylpropanediamide]: the IC50 was 10 to 100 nM. In the case of `CN(C)C(=O)CNC(=O)C(C(=O)NO)N(C)C(=O)c1ccc(-c2ccccc2)cc1` (centres unmarked) [Compound 173, 2-[(biphenyl-4-ylcarbonyl)(methyl)amino]-N-[2-(dimethylamino)-2-oxoethyl]-N′-hydroxypropanediamide], the IC50 was > 100 nM. The same measure, in the same setting: then `CNC(=O)C(C(=O)NO)N(C)C(=O)c1ccc(-c2ccc3c(c2)CCN3)cc1` (centres unmarked) [Compound 39, 2-{[4-(2,3-dihydro-1H-indol-5-yl)benzoyl](methyl)amino}-N-hydroxy-N′-methylpropanediamide], with 10 to 100 nM; and `CNC(=O)C(C(=O)NO)N(C)C(=O)c1ccc(-c2ccc(OCC3(CN4CCOCC4)CC3)cc2)cc1` (centres unmarked) [Compound 102, N-hydroxy-N′-methyl-2-{methyl[(4′-{[1-(morpholin-4-ylmethyl)cyclopropyl]methoxy}biphenyl-4-yl)carbonyl]amino}propanediamide], with 10 to 100 nM.

Consider `CNC(=O)C(C(=O)NO)N(C(=O)c1ccc(-c2ccccc2)cc1)C1CCC1` (centres unmarked) [Compound 163, 2-[(biphenyl-4-ylcarbonyl)(cyclobutyl)amino]-N-hydroxy-N′-methylpropanediamide], for which the IC50 was in the range of 10 to 100 nM. In the case of `CNC(=O)C(C(=O)NO)N(C)C(=O)c1ccc(C#Cc2ccccc2)cn1` (centres unmarked) [Compound 455, N-hydroxy-N′-methyl-2-(methyl {[5-(phenylethynyl)pyridin-2-yl]carbonyl}amino)propanediamide], the IC50 was > 100 nM.

With `CNC(=O)C(C(=O)NO)N(C)C(=O)c1ccc(-c2ccc(NCCCN(C)Cc3ccccc3)cc2)cc1` (centres unmarked) [Compound 97, 2-[{[4′-({3-[benzyl(methyl)amino]propyl}amino)biphenyl-4-yl]carbonyl}(methyl)amino]-N-hydroxy-N′-methylpropanediamide], the IC50 is 10 to 100 nM. Regarding `CNC(=O)C(C(=O)NO)N(C)C(=O)c1ccc(C#CC#Cc2ccc(CNC3CC3)cc2)cc1` (centres unmarked) [Compound 476, 2-[{[4-(4-{4-[(cyclopropylamino)methyl]phenyl}buta-1,3-diyn-1-yl)phenyl]carbonyl}(methyl)amino]-N-hydroxy-N′-methylpropanediamide], the IC50 was < 10 nM. The same measure, in the same setting: for `CNC(=O)C(C(=O)NO)N(C)C(=O)c1ccc(-c2ccc(OCCCCO)cc2)cc1` (centres unmarked) [Compound 180, N-hydroxy-2-[{[4′-(4-hydroxybutoxy)biphenyl-4-yl]carbonyl}(methyl)amino]-N′-methylpropanediamide] the value was < 10 nM. For `O=C(NC(C(=O)NO)C(=O)NCc1cccnc1)c1ccc(-c2ccc(OCCO)cc2)cc1` (centres unmarked) [Compound 129, N-hydroxy-2-({[4′-(2-hydroxyethoxy)biphenyl-4-yl]carbonyl}amino)-N′-(pyridin-3-ylmethyl)propanediamide], the IC50 is < 10 nM.

Turning to `CNC(=O)C(C(=O)NO)N(C)C(=O)c1ccc(C#Cc2ccc(CN3CCC(OC)CC3)cc2)cc1` (centres unmarked) [Compound 383, N-hydroxy-2-[{[4-({4-[(4-methoxypiperidin-1-yl)methyl]phenyl}ethynyl)phenyl]carbonyl}(methyl)amino]-N′-methylpropanediamide], the IC50 was < 10 nM.

On to `CC(C)(C)NC(=O)C(NC(=O)c1ccc(-c2ccc(OCCO)cc2)cc1)C(=O)NO` (centres unmarked) [Compound 119, N-tert-butyl-N′-hydroxy-2-({[4′-(2-hydroxyethoxy)biphenyl-4-yl]carbonyl}amino)propanediamide], for which the IC50 was > 100 nM. In the case of `O=C(NC(C(=O)NO)C(=O)NCC1COc2ccccc2O1)c1ccc(-c2ccc(OCCO)cc2)cc1` (centres unmarked) [Compound 149, N-(2,3-dihydro-1,4-benzodioxin-2-ylmethyl)-N′-hydroxy-2-({[4′-(2-hydroxyethoxy)biphenyl-4-yl]carbonyl}amino)propanediamide], the IC50 is < 10 nM. On the same count and under the same terms, then `CNC(=O)C(C(=O)NO)N(C)C(=O)c1ccc(-c2ccc(N3CCN(C)CC3)cc2)cc1` (centres unmarked) [Compound 267, N-hydroxy-N′-methyl-2-(methyl {[4′-(4-methylpiperazin-1-yl)biphenyl-4-yl]carbonyl}amino)propanediamide], with 10 to 100 nM. On to `CNC(=O)C(C(=O)NO)N(C)C(=O)c1ccc(-c2ccc(OCCC(O)CO)cc2)cc1` (centres unmarked) [Compound 181, 2-[{[4′-(3,4-dihydroxybutoxy)biphenyl-4-yl]carbonyl}(methyl)amino]-N-hydroxy-N′-methylpropanediamide], for which the IC50 is < 10 nM. For `CNC(=O)C(C(=O)NO)N(C)C(=O)c1ccc(-c2ccc(C)cc2F)c(F)c1` (centres unmarked) [Compound 460, 2-{[(2,2′-difluoro-4′-methylbiphenyl-4-yl)carbonyl](methyl)amino}-N-hydroxy-N′-methylpropanediamide], the IC50 was < 10 nM. As to `CNC(=O)C(C(=O)NO)N(C)C(=O)c1ccc(-c2ccc(C(=O)N(C)C)cc2)cc1` (centres unmarked) [Compound 252, N-[1-(hydroxyamino)-3-(methylamino)-1,3-dioxopropan-2-yl]-N,N′,N′-trimethylbiphenyl-4,4′-dicarboxamide], the IC50 fell in the range of 10 to 100 nM.

`CNC(=O)C(C(=O)NO)N(C)C(=O)c1ccc(-c2ccc(OCCCN3CC(C)OC(C)C3)cc2)cc1` (centres unmarked) [Compound 88, 2-[({4′-[3-(2,6-dimethylmorpholin-4-yl)propoxy]biphenyl-4-yl}carbonyl)(methyl)amino]-N-hydroxy-N′-methylpropanediamide]: the IC50 is < 10 nM.
